From PubChem BioAssay (NCI)
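Five compound concentrations were applied to cells in 96-well plates for 48 hours; endpoints were derived by simple linear interpolation of the resulting dose-response curve. GI50 marks 50% less growth. TGI: total growth inhibition.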

What was measured:
Experiment in all cases: inhibition of tumour cell growth, NCI panel, 48 h; in the data active means GI50 below about 0.43 µM; inactive means the rest
786-0 renal = test system: 786-0 renal
A498 renal = test system: A498 renal
A549 NSCLC = test system: A549 NSCLC
ACHN renal = test system: ACHN renal
BT-549 breast = test system: BT-549 breast
CAKI-1 renal = test system: CAKI-1 renal
CCRF-CEM leukemia = test system: CCRF-CEM leukemia
COLO 205 colon = test system: COLO 205 colon
DU-145 prostate = test system: DU-145 prostate
EKVX NSCLC = test system: EKVX NSCLC
HCC-2998 colon = test system: HCC-2998 colon
HCT-116 colon = test system: HCT-116 colon
HCT-15 colon = test system: HCT-15 colon
HL-60(TB) leukemia = test system: HL-60(TB) leukemia
HOP-62 NSCLC = test system: HOP-62 NSCLC
HOP-92 NSCLC = test system: HOP-92 NSCLC
HS 578T breast = test system: HS 578T breast
HT29 colon = test system: HT29 colon
IGROV1 ovarian = test system: IGROV1 ovarian
K-562 leukemia = test system: K-562 leukemia
KM12 colon = test system: KM12 colon
LOX IMVI melanoma = test system: LOX IMVI melanoma
M14 melanoma = test system: M14 melanoma
MALME-3M melanoma = test system: MALME-3M melanoma
MCF7 breast = test system: MCF7 breast
MDA-MB-231 breast = test system: MDA-MB-231 breast
MDA-MB-435 = test system: MDA-MB-435
MOLT-4 leukemia = test system: MOLT-4 leukemia
NCI-H226 lung = test system: NCI-H226 lung
NCI-H23 lung = test system: NCI-H23 lung
NCI-H460 lung = test system: NCI-H460 lung
NCI-H522 lung = test system: NCI-H522 lung
NCI/ADR-RES ovarian = test system: NCI/ADR-RES ovarian
OVCAR-3 ovarian = test system: OVCAR-3 ovarian
OVCAR-4 ovarian = test system: OVCAR-4 ovarian
OVCAR-5 ovarian = test system: OVCAR-5 ovarian
OVCAR-8 ovarian = test system: OVCAR-8 ovarian
PC-3 prostate = test system: PC-3 prostate
RPMI-8226 leukemia = test system: RPMI-8226 leukemia
RXF 393 renal = test system: RXF 393 renal
SF-268 CNS = test system: SF-268 CNS
SF-295 CNS = test system: SF-295 CNS
SF-539 CNS = test system: SF-539 CNS
SK-MEL-2 melanoma = test system: SK-MEL-2 melanoma
SK-MEL-28 melanoma = test system: SK-MEL-28 melanoma
SK-MEL-5 melanoma = test system: SK-MEL-5 melanoma
SK-OV-3 ovarian = test system: SK-OV-3 ovarian
SN12C renal = test system: SN12C renal
SNB-19 CNS = test system: SNB-19 CNS
SNB-75 CNS = test system: SNB-75 CNS
SR leukemia = test system: SR leukemia
SW-620 colon = test system: SW-620 colon
T-47D breast = test system: T-47D breast
TK-10 renal = test system: TK-10 renal
U251 CNS = test system: U251 CNS
UACC-257 melanoma = test system: UACC-257 melanoma
UACC-62 melanoma = test system: UACC-62 melanoma
UO-31 renal = test system: UO-31 renal

COc1ccc(C(=O)c2cc(OC)c(OC)c(OC)c2)cc1OC(=O)C(Cl)(Cl)Cl
> 50200 nM: TGI (MOLT-4 leukemia)
329 nM: TGI (SK-MEL-5 melanoma)
> 100000 nM: TGI (786-0 renal) | TGI (A549 NSCLC) | TGI (ACHN renal) | TGI (CAKI-1 renal) | TGI (CCRF-CEM leukemia) | TGI (DU-145 prostate) | TGI (EKVX NSCLC) | TGI (HCC-2998 colon) | TGI (HCT-116 colon) | TGI (HCT-15 colon) | TGI (HOP-62 NSCLC) | TGI (HOP-92 NSCLC) | TGI (HS 578T breast) | TGI (HT29 colon) | TGI (IGROV1 ovarian) | TGI (K-562 leukemia) | TGI (KM12 colon) | TGI (LOX IMVI melanoma) | TGI (M14 melanoma) | TGI (MALME-3M melanoma) | TGI (MCF7 breast) | TGI (MDA-MB-231 breast) | TGI (NCI-H226 lung) | TGI (NCI-H23 lung) | TGI (NCI-H460 lung) | TGI (NCI-H522 lung) | TGI (NCI/ADR-RES ovarian) | TGI (OVCAR-3 ovarian) | TGI (OVCAR-4 ovarian) | TGI (OVCAR-5 ovarian) | TGI (OVCAR-8 ovarian) | TGI (PC-3 prostate) | TGI (RXF 393 renal) | TGI (SF-268 CNS) | TGI (SF-295 CNS) | TGI (SK-MEL-2 melanoma) | TGI (SK-MEL-28 melanoma) | TGI (SK-OV-3 ovarian) | TGI (SN12C renal) | TGI (SNB-19 CNS) | TGI (SNB-75 CNS) | TGI (SR leukemia) | TGI (SW-620 colon) | TGI (T-47D breast) | TGI (TK-10 renal) | TGI (U251 CNS) | TGI (UACC-257 melanoma) | TGI (UACC-62 melanoma) | TGI (UO-31 renal)
7180 nM: TGI (A498 renal)
< 19.1 nM: TGI (HL-60(TB) leukemia)
27200 nM: TGI (RPMI-8226 leukemia)
active: GI50 (A549 NSCLC) 154 nM | GI50 (ACHN renal) 32.9 nM | GI50 (BT-549 breast) 11.8 nM | GI50 (CAKI-1 renal) 140 nM | GI50 (CCRF-CEM leukemia) < 18.3 nM | GI50 (DU-145 prostate) 28.4 nM | GI50 (HCC-2998 colon) 46.2 nM | GI50 (HCT-116 colon) 28.4 nM | GI50 (HCT-15 colon) < 10 nM | GI50 (HL-60(TB) leukemia) < 10 nM | GI50 (HOP-62 NSCLC) 83 nM | GI50 (HS 578T breast) 18 nM | GI50 (IGROV1 ovarian) 312 nM | GI50 (K-562 leukemia) < 10 nM | GI50 (KM12 colon) < 10 nM | GI50 (LOX IMVI melanoma) < 13.4 nM | GI50 (M14 melanoma) < 10 nM | GI50 (MCF7 breast) 27.2 nM | GI50 (MDA-MB-231 breast) 158 nM | GI50 (MDA-MB-435) < 10 nM | GI50 (MOLT-4 leukemia) < 19.9 nM | GI50 (NCI-H23 lung) 62.7 nM | GI50 (NCI-H460 lung) 38.8 nM | GI50 (NCI-H522 lung) 16.9 nM | GI50 (NCI/ADR-RES ovarian) < 11 nM | GI50 (OVCAR-3 ovarian) 27.8 nM | GI50 (OVCAR-4 ovarian) 122 nM | GI50 (OVCAR-8 ovarian) 44.1 nM | GI50 (PC-3 prostate) < 10.6 nM | GI50 (RPMI-8226 leukemia) < 20.2 nM | GI50 (RXF 393 renal) 33.7 nM | GI50 (SF-268 CNS) 73.6 nM | GI50 (SF-295 CNS) 79.2 nM | GI50 (SF-539 CNS) 13.4 nM | GI50 (SK-MEL-5 melanoma) 32.5 nM | GI50 (SK-OV-3 ovarian) 76.2 nM | GI50 (SN12C renal) 57.9 nM | GI50 (SNB-19 CNS) 45.2 nM | GI50 (SNB-75 CNS) < 10 nM | GI50 (SR leukemia) < 10 nM | GI50 (SW-620 colon) < 10 nM | GI50 (U251 CNS) 38.4 nM
23200 nM: TGI (COLO 205 colon)
inactive: GI50 (786-0 renal) 587 nM | GI50 (A498 renal) 1970 nM | GI50 (COLO 205 colon) 1310 nM | GI50 (EKVX NSCLC) 3160 nM | GI50 (HOP-92 NSCLC) 470 nM | GI50 (HT29 colon) 2000 nM | GI50 (NCI-H226 lung) 15400 nM | GI50 (OVCAR-5 ovarian) 4490 nM | GI50 (SK-MEL-2 melanoma) 85300 nM | GI50 (SK-MEL-28 melanoma) 25100 nM | GI50 (T-47D breast) 2400 nM | GI50 (TK-10 renal) 34100 nM | GI50 (UACC-257 melanoma) > 100000 nM | GI50 (UACC-62 melanoma) 628 nM | GI50 (UO-31 renal) 540 nM
880 nM: TGI (BT-549 breast)
56 nM: TGI (SF-539 CNS)
